Laboratory results as given in patent US9232799B2, “N-[(het)arylethyl)] pyrazole(thio)carboxamides and their heterosubstituted analogues” (BAYER INTELLECTUAL PROPERTY GMBH, priority 2010, dated 2016).

Legend:
[1] = logP by HPLC on reversed-phase column (C 18), EEC Directive 79/831 Annex V.A8; format: physicochemical
Procedure: In table 1, the logP values were determined in accordance with EEC Directive 79/831 Annex V.A8 by HPLC (High Performance Liquid Chromatography) on a reversed-phase column (C 18), using the method described below: Temperature: 40° C.; […]

Alternaria solani = test: In vivo preventive test on Alternaria solani (tomato); conditions: 500 ppm of active ingredient, evaluated 7 days after inoculation
Excerpt: One day after this treatment, the plants are inoculated with an aqueous spore suspension of Alternaria solani.

Pyrenophora teres = test: In vivo preventive test on Pyrenophora teres (barley); conditions: 500 ppm of active ingredient, evaluated 7-9 days after inoculation
Excerpt: One day after this treatment, the plants are inoculated with an aqueous spore suspension of Pyrenophora teres.

aflatoxines production = test: microbe, parasite or virus in culture; format: cell-based, Aspergillus parasiticus; conditions: 50 μM
Fusarium graminearum = test: microbe, parasite or virus in culture; format: cell-based; conditions: 50 μM

Row | Structure (SMILES) | logP [1] | Efficacy (Alternaria solani) | Efficacy (Pyrenophora teres) | % Inhibition of Aflatoxin at 50 μM (aflatoxines production) | % Inhibition of fungal growth at 50 μM (Fusarium graminearum)
1 | CC(CNC(=O)c1c(C(F)F)nn(C)c1F)c1cc(Cl)ccc1Cl (stereo not drawn) [Example 97] | 3.35 | 95% | 100% | 100% | 100%
2 | Cn1nc(C(F)F)c(C(=O)NCC(c2cccs2)C(F)(F)F)c1F (stereo not drawn) [Example 161] | 2.75 | 95% | 100% | 100% | 85%
3 | CC(CNC(=O)c1c(C(F)F)nn(C)c1F)c1ccccc1Cl (stereo not drawn) [Example 39] | 2.94 | 100% | 100% | 100% | 100%
4 | CN(CCc1ccc(F)cc1)C(=O)c1c(C(F)F)nn(C)c1F [Example 22] | 2.50 | 100% | 100% | 100% | 100%
5 | Cn1nc(C(F)F)c(C(=O)NC[Si](C)(C)c2cccc(Cl)c2)c1F [Example 237] | 3.55 | 100% | 100% | 100% | 100%
6 | CN(CCc1ccccc1C(F)(F)F)C(=O)c1c(C(F)F)nn(C)c1Cl [Example 124] | 3.13 | 100% | 95% | 100% | 87%
7 | Cn1nc(C(F)F)c(C(=O)NCCc2ccc(Oc3ccccc3)cc2)c1F [Example 152] | 3.41 | 95% | 100% | 100% | 82%
8 | CN(CCc1ccccc1C(F)(F)F)C(=O)c1c(C(F)F)nn(C)c1F [Example 123] | 3.00 | 100% | 95% | 100% | 100%
9 | CC(C)C(CNC(=O)c1c(C(F)F)nn(C)c1Cl)c1ccc(Cl)cc1 (stereo not drawn) [Example 59] | 3.94 | 100% | 100% | 100% | 83%
10 | Cn1nc(C(F)F)c(C(=O)NCCc2cc(Cl)ccc2Cl)c1F [Example 90] | 3.11 | 95% | 100% | 100% | 100%
11 | CN(CCc1ccccc1Cl)C(=O)c1c(C(F)F)nn(C)c1F [Example 35] | 2.76 | 100% | 100% | 100% | 100%
12 | Cc1c(CCNC(=O)c2c(C(F)F)nn(C)c2F)sc2ccccc12 [Example 171] | 3.27 | 100% | 100% | 100% | 93%
13 | CC(CNC(=O)c1c(C(F)F)nn(C)c1F)c1c(F)cccc1F (stereo not drawn) [Example 30] | 2.78 | 100% | 100% | 100% | 98%
14 | Cn1nc(C(F)F)c(C(=O)NC[Si](C)(C)c2cccc(Cl)c2)c1Cl [Example 236] | 3.71 | 100% | 100% | 99% | 84%
15 | CC(CNC(=O)c1c(C(F)F)nn(C)c1Cl)c1c(F)cccc1F (stereo not drawn) [Example 29] | 2.92 | 100% | 100% | 100% | 82%
16 | CC(Cc1ccccc1F)N(C(=O)c1c(C(F)F)nn(C)c1Cl)C1CC1 (stereo not drawn) [Example 20] | 3.52 | 95% | 100% | 86% | 69%
17 | CC(c1ccccc1Cl)C(C)N(C(=O)c1c(C(F)F)nn(C)c1Cl)C1CC1 (stereo not drawn) [Example 42] | 4.08 | 80% | 100% | 100% | 84%
18 | CC(CNC(=O)c1c(C(F)F)nn(C)c1F)c1cc(Cl)cc(Cl)c1 (stereo not drawn) [Example 111] | 3.55 | 95% | 100% | 100% | 96%
19 | Cc1cc(C)c(CCN(C)C(=O)c2c(C(F)F)nn(C)c2F)c(C)c1 [Example 135] | 3.48 | 95% | 95% | 100% | 96%
20 | CN(CCc1cc(Cl)ccc1Cl)C(=O)c1c(C(F)F)nn(C)c1F [Example 94] | 3.17 | 100% | 100% | 100% | 100%
21 | Cn1nc(C(F)F)c(C(=O)NCCc2ncc(C(F)(F)F)cc2Cl)c1Cl [Example 191] | 2.97 | 94% | 100% | 100% | 100%
22 | CC(CNC(=O)c1c(C(F)F)nn(C)c1Cl)c1cccc(Cl)c1 (stereo not drawn) [Example 52] | 3.21 | 100% | 100% | 100% | 83%
23 | CC(Cc1cccc(Oc2ccccc2)c1)NC(=O)c1c(C(F)F)nn(C)c1F (stereo not drawn) [Example 146] | 3.64 | 95% | 100% | 100% | 83%
24 | Cc1ccsc1CCNC(=O)c1c(C(F)F)nn(C)c1Cl [Example 163] | 2.68 | 90% | 95% | 98% | 80%
25 | Cn1nc(C(F)F)c(C(=O)NCCc2c(F)c(F)nc(F)c2F)c1F [Example 208] | 2.44 | 95% | 100% | 99% | 100%
26 | Cn1nc(C(F)F)c(C(=O)NCCc2csc3c2CCCC3)c1Cl [Example 169] | 3.52 | 80% | 100% | 91% | 75%
27 | Cn1nc(C(F)F)c(C(=O)NCCc2ccccc2Cl)c1Cl [Example 34] | 2.88 | 100% | 100% | 100% | 84%
28 | CN(CCc1ccccc1)C(=O)c1c(C(F)F)nn(C)c1F [Example 4] | 2.43 | 100% | 95% | 100% | 91%
29 | Cn1nc(C(F)F)c(C(=O)NCCc2ccccc2C(F)(F)F)c1F [Example 121] | 2.92 | 95% | 100% | 100% | 100%
30 | CC(CNC(=O)c1c(C(F)F)nn(C)c1Cl)c1ccc(C(F)(F)F)cc1 (stereo not drawn) [Example 128] | 3.39 | 100% | 94% | 100% | 82%
